From patent US8895717B2, “Delivery of siRNA by neutral lipid compositions” (The Board of Regents of the University of Texas System, priority 2005, dated 2014)
d = 2'-deoxy (DNA); r = 2'-OH (RNA)

Key:
caspase-3 = test: Caspase-3 activity in ovarian cancer cells (DEVD-AFC); format: cell-based, human; conditions: taxane-sensitive and taxane-resistant cell lines
Method: Ovarian cancer cells (1×10^6) in culture (six-well plates) were treated with or without docetaxel at the cell line specific IC50 or IC90 concentration for 24 hours. After washing with PBS, cells were lysed in 50 μL of cell lysis buffer provided. Caspase-3, caspase-8, and caspase-9 activities were measured with the appropriate apoptosis detection kit (BD Biosciences/Clontech, Palo Alto, Calif.), using substrate DEVD-AFC for caspase-3, IETD-AFC for caspase-8, and LEHD-AMC for caspase-9.

SKOV3 cells = test: Cytotoxicity assay (MTT), SKOV3; format: cell-based, human
Method: The medium was exchanged after 48 hours with increasing concentrations of docetaxel (obtained from Aventis Pharma, Bridgewater, N.J.) dissolved in ethanol (final concentration range, 0.1-10,000 nmol/L prepared in medium) or cisplatin (purchased from LKT Laboratories, Inc., St. Paul, Minn.) dissolved in water. After a 96-hour incubation, 50 μL of 0.15% 3-(4,5-dimethylthiazol-2-yl)-2,5-diphenyltetrazolium bromide was added to each well and incubated for 2 hours. The supernatant was removed, and cells were dissolved in 100 μL DMSO. The absorbance at 570 nm was recorded using a FALCON microplate reader (Becton Dickinson Labware, Bedford, Mass.), and cell survival expressed as a percent increase or decrease above control conditions, after subtracting blank A570 readings. The IC50 concentration was determined by finding the A570 reading midpoint between maximal and minimal readings and finding the chemotherapy concentration that intersects the growth curve at that A570 reading.

SKOV3ip1 cells = test: In vivo therapy with DOPC-FAK siRNA, SKOV3ip1 model; parameters: species or system nude mice; conditions: for Incidence (%) / No. Nodules: siRNA in DOPC twice weekly, docetaxel 50 μg weekly
Method: (§1) siRNA for in vivo delivery was incorporated into the phospholipid 1,2-dioleoyl-sn-glycero-3-phosphatidylcholine (DOPC). DOPC and siRNA were mixed in the presence of excess tertiary-butanol at a ratio of […], as previously described (Landen et al., 2005). Tween-20 was added to the mixture at a ratio of 1:19. The mixture was vortexed, frozen in an acetone/dry ice bath, and lyophilized. Before in vivo administration, this preparation was hydrated with normal (0.9%) saline at a concentration of 15 μg/ml to achieve the desired dose of 150-200 μl per injection. To estimate the quantity of siRNA not taken up by liposomes free siRNA was separated from liposomes by using filter units with a 30,000 nominal molecular weight limit (Millipore Corp, Billerica, Mass.). The liposomal suspension was added to the filters and centrifuged at 5,000 g for 40 min at room temperature. Fractions were collected, the material trapped in the filter was reconstituted with 0.9% saline, and the amount of siRNA in the collected fraction and eluent were measured by spectrophotometry.
(§2) To produce tumors, SKOV3ip1, Hey A8-MDR cells (1×10^6 cells/0.2 ml of HBSS) and Hey A8 cells (2.5×10^5 cells/0.2 ml of HBSS) were injected interperitoneally (i.p.) into the mice. For in vivo injections, cells were trypsinized and centrifuged at 1000 rpm for 7 minutes at 4° C., washed twice with PBS and reconstituted in serum-free Hank's balanced salt solution (HBSS, Life Technologies, Carlsbad, Calif.). Only single-cell suspensions with >95% viability, as determined by trypan blue exclusion, were used for the in vivo injections. Mice (n=10 per group) were monitored for adverse effects of therapy and were sacrificed on day 35 (SKOV3ip1) or day 28 (HeyA8 or HeyA8-MDR) or when any of the mice began to appear moribund. Mouse weight, tumor weight, and tumor distribution were recorded. Tissue specimens were snap frozen for lysate preparation, fixed in formalin for paraffin embedding or frozen on OCT compound (Miles, Inc., Elkhart, Ind.) for frozen slide preparation.
(§3) Based on the results of preliminary dose-response studies, a series of three separate therapy studies were initiated using the optimal FAK siRNA dosage. Tumor cells were injected i.p. and 7 days later, the mice were randomly assigned to five treatment groups: empty liposome twice weekly, non-specific control […] siRNA (3 μg) twice weekly, control FAK siRNA (3 μg) twice weekly in combination with 50 μg docetaxel weekly, FAK siRNA twice weekly and FAK siRNA (3 μg) twice weekly in addition to 50 μg docetaxel weekly.
(§4) The SKOV3ip1 or HeyA8 ovarian cancer cells were implanted into the peritoneal cavity of athymic nude mice for experiments designed to test the therapeutic potential of FAK-targeted inhibition of gene expression. Seven days later, therapy was started according to the following five treatment groups: 1) empty liposomes; 2) non-specific siRNA-DOPC; 3) docetaxel plus non-specific siRNA-DOPC; 4) FAK targeted siRNA-DOPC; and 5) docetaxel plus FAK-targeted siRNA-DOPC. The animals were sacrificed after 4 weeks of therapy and a necropsy was performed. The data for these therapies' effects on SKOV3ip1 and HeyA8 are summarized in FIGS. 6A and 6B, respectively. […] Treatment with FAK siRNA alone or docetaxel plus control siRNA were effective in inhibiting tumor growth (54 to 74%) in both cell lines compared with control (FIG. 13).

HeyA8 cells = test: In vivo therapy with DOPC-FAK siRNA, HeyA8 model; parameters: species or system nude mice; conditions: for Incidence (%) / No. Nodules: siRNA in DOPC twice weekly, docetaxel 50 μg weekly
Method: as §1, §2, §3, §4

Substance | caspase-3 activity, siRNA alone (caspase-3) | effect on sensitivity to docetaxel (SKOV3 cells; all ovarian cancer cell lines tested) | efficacy compared with empty liposomes (SKOV3ip1 cells) | Incidence (%) (SKOV3ip1 cells) | No. Nodules (SKOV3ip1 cells) | reduction of tumors compared with empty liposomes (HeyA8 cells) | Incidence (%) (HeyA8 cells) | No. Nodules (HeyA8 cells) | fold greater docetaxel cytotoxicity after FAK down-regulation (SKOV3 cells; SKOV3, siRNA 48 hours before docetaxel, at 50% cytotoxicity)
control siRNA: sense r(UUUUCCGAACGUGUCACGU)dTT, antisense r(ACGUGACACGUUCGGAGAA)dTT, no homology with human mRNA; in vivo in DOPC (sense UUUUCCGAACGUGUCACGUTT; antisense ACGUGACACGUUCGGAGAATT; sugars from the 5' end r19 d2, backbone not given here) | did not potentiate the activity of caspase-3 | did not affect sensitivity of ovarian cancer cells to docetaxel | not effective against SKOV3ip1 tumors | 100% | 15 | about 39% | 100% | 4.0 | –
FAK siRNA: sense r(CCACCUGGGCCAGUAUUAU)d(TT), antisense r(AUAAUACUGGCCCAGGUGG)d(TT); for in vivo delivery incorporated into DOPC (sense CCACCUGGGCCAGUAUUAUTT; antisense AUAAUACUGGCCCAGGUGGTT; sugars from the 5' end r19 d2, backbone not given here) | did not potentiate the activity of caspase-3 | – | – | 70% | 3.7 | – | 70% | 1.7 | ~5 fold
